Results: the supplement of paper PMC11451515

System: NOMO1
Assay: cell viability relative to DMSO control; higher = less cytotoxic
Conditions: 48 h
Summary of the method: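 Viability was expressed as a per-plate percentage of DMSO wells, with cell-free wells as background. Leukemia cells (NOMO1 or SEM at 500 cells/well, P12-Ichikawa at 1000 cells/well) were adapted for at least four passages in each medium and seeded in 1536-well plates (5 μl). Library compounds in DMSO were pin-dosed over an 11-point threefold series from 47 μM to 0.79 nM, and CellTiter-Glo One luminescence was read after 48 h at 37°C.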

[1] = HPLM + 10% dialyzed FBS, 0.000781 µM
[2] = HPLM + 10% dialyzed FBS, 0.00234 µM
[3] = HPLM + 10% dialyzed FBS, 0.00702 µM
[4] = HPLM + 10% dialyzed FBS, 0.0211 µM
[5] = HPLM + 10% dialyzed FBS, 0.0632 µM
[6] = HPLM + 10% dialyzed FBS, 0.19 µM
[7] = HPLM + 10% dialyzed FBS, 0.569 µM
[8] = HPLM + 10% dialyzed FBS, 1.71 µM
[9] = HPLM + 10% dialyzed FBS, 5.12 µM
[10] = HPLM + 10% dialyzed FBS, 15.4 µM
[11] = HPLM + 10% dialyzed FBS, 46.1 µM
[12] = RPMI 5 mM glucose + 10% FBS, 0.000781 µM
[13] = RPMI 5 mM glucose + 10% FBS, 0.00234 µM
[14] = RPMI 5 mM glucose + 10% FBS, 0.00702 µM
[15] = RPMI 5 mM glucose + 10% FBS, 0.0211 µM
[16] = RPMI 5 mM glucose + 10% FBS, 0.0632 µM
[17] = RPMI 5 mM glucose + 10% FBS, 0.19 µM
[18] = RPMI 5 mM glucose + 10% FBS, 0.569 µM
[19] = RPMI 5 mM glucose + 10% FBS, 1.71 µM
[20] = RPMI 5 mM glucose + 10% FBS, 5.12 µM
[21] = RPMI 5 mM glucose + 10% FBS, 15.4 µM
[22] = RPMI 5 mM glucose + 10% FBS, 46.1 µM
[23] = RPMI 5 mM glucose + 10% dialyzed FBS, 0.000781 µM
[24] = RPMI 5 mM glucose + 10% dialyzed FBS, 0.00234 µM
[25] = RPMI 5 mM glucose + 10% dialyzed FBS, 0.00702 µM
[26] = RPMI 5 mM glucose + 10% dialyzed FBS, 0.0211 µM
[27] = RPMI 5 mM glucose + 10% dialyzed FBS, 0.0632 µM
[28] = RPMI 5 mM glucose + 10% dialyzed FBS, 0.19 µM
[29] = RPMI 5 mM glucose + 10% dialyzed FBS, 0.569 µM
[30] = RPMI 5 mM glucose + 10% dialyzed FBS, 1.71 µM
[31] = RPMI 5 mM glucose + 10% dialyzed FBS, 5.12 µM
[32] = RPMI 5 mM glucose + 10% dialyzed FBS, 15.4 µM
[33] = RPMI 5 mM glucose + 10% dialyzed FBS, 46.1 µM

C[C@@]12C[C@@]3(O)O[C@@H](O1)[C@]1(COC(=O)c4ccccc4)[C@H]3C[C@@]12O[C@@H]1O[C@H](CO)[C@@H](O)[C@H](O)[C@H]1O
cell viability [1]: 94.6%
cell viability [2]: 112%
cell viability [3]: 99.3%
cell viability [4]: 126%
cell viability [5]: 124%
cell viability [6]: 130%
cell viability [7]: 137%
cell viability [8]: 113%
cell viability [9]: 100%
cell viability [10]: 71.1%
cell viability [11]: 45.5%
cell viability [12]: 100%
cell viability [13]: 95.2%
cell viability [14]: 109%
cell viability [15]: 103%
cell viability [16]: 114%
cell viability [17]: 105%
cell viability [18]: 105%
cell viability [19]: 103%
cell viability [20]: 98.3%
cell viability [21]: 109%
cell viability [22]: 112%
cell viability [23]: 103%
cell viability [24]: 91.2%
cell viability [25]: 94.9%
cell viability [26]: 103%
cell viability [27]: 101%
cell viability [28]: 114%
cell viability [29]: 93.7%
cell viability [30]: 107%
cell viability [31]: 114%
cell viability [32]: 110%
cell viability [33]: 91%

COc1ccc(-c2ccc3c(N4CCOC[C@@H]4C)nc(N4CCOC[C@@H]4C)nc3n2)cc1CO
cell viability [1]: 93.6%
cell viability [2]: 76.5%
cell viability [3]: 93.1%
cell viability [4]: 82.1%
cell viability [5]: 74.5%
cell viability [6]: 64.6%
cell viability [7]: 58.7%
cell viability [8]: 55.1%
cell viability [9]: 48%
cell viability [10]: 9.86%
cell viability [11]: 3.58%
cell viability [12]: 103%
cell viability [13]: 75.7%
cell viability [14]: 94%
cell viability [15]: 95.6%
cell viability [16]: 90.4%
cell viability [17]: 84.5%
cell viability [18]: 75.1%
cell viability [19]: 72.4%
cell viability [20]: 63.4%
cell viability [21]: 41.7%
cell viability [22]: 4.25%
cell viability [23]: 102%
cell viability [24]: 63.9%
cell viability [25]: 98.6%
cell viability [26]: 86%
cell viability [27]: 85.9%
cell viability [28]: 69%
cell viability [29]: 64%
cell viability [30]: 70.5%
cell viability [31]: 57.4%
cell viability [32]: 52.4%
cell viability [33]: 5.83%

C\C1=C(\C=C(\C#N)C(=O)N1)C2=CC=NC=C2
cell viability [1]: 98.3%
cell viability [2]: 114%
cell viability [3]: 117%
cell viability [4]: 116%
cell viability [5]: 133%
cell viability [6]: 118%
cell viability [7]: 123%
cell viability [8]: 131%
cell viability [9]: 114%
cell viability [10]: 103%
cell viability [11]: 108%
cell viability [12]: 94.7%
cell viability [13]: 108%
cell viability [14]: 110%
cell viability [15]: 104%
cell viability [16]: 109%
cell viability [17]: 111%
cell viability [18]: 106%
cell viability [19]: 127%
cell viability [20]: 103%
cell viability [21]: 97.5%
cell viability [22]: 71.5%
cell viability [23]: 112%
cell viability [24]: 108%
cell viability [25]: 119%
cell viability [26]: 118%
cell viability [27]: 115%
cell viability [28]: 114%
cell viability [29]: 120%
cell viability [30]: 115%
cell viability [31]: 114%
cell viability [32]: 110%
cell viability [33]: 81.2%

O=C(Nc1ccc(F)c(C(F)(F)F)c1)Nc1nnc(-c2ccncc2)s1
cell viability [1]: 112%
cell viability [2]: 120%
cell viability [3]: 127%
cell viability [4]: 130%
cell viability [5]: 134%
cell viability [6]: 136%
cell viability [7]: 118%
cell viability [8]: 112%
cell viability [9]: 118%
cell viability [10]: 108%
cell viability [11]: 111%
cell viability [12]: 123%
cell viability [13]: 113%
cell viability [14]: 124%
cell viability [15]: 106%
cell viability [16]: 114%
cell viability [17]: 105%
cell viability [18]: 121%
cell viability [19]: 102%
cell viability [20]: 108%
cell viability [21]: 107%
cell viability [22]: 101%
cell viability [23]: 119%
cell viability [24]: 124%
cell viability [25]: 128%
cell viability [26]: 124%
cell viability [27]: 125%
cell viability [28]: 131%
cell viability [29]: 113%
cell viability [30]: 128%
cell viability [31]: 116%
cell viability [32]: 114%
cell viability [33]: 100%

Cc1[nH]c2ccccc2c1CCNCc1ccc(/C=C/C(=O)NO)cc1
cell viability [1]: 102%
cell viability [2]: 108%
cell viability [3]: 126%
cell viability [4]: 99.9%
cell viability [5]: 137%
cell viability [6]: 103%
cell viability [7]: 61.8%
cell viability [8]: 14.2%
cell viability [9]: 9%
cell viability [10]: 8.41%
cell viability [11]: 8.11%
cell viability [12]: 111%
cell viability [13]: 118%
cell viability [14]: 108%
cell viability [15]: 106%
cell viability [16]: 110%
cell viability [17]: 102%
cell viability [18]: 82.9%
cell viability [19]: 10.9%
cell viability [20]: 7.29%
cell viability [21]: 7.8%
cell viability [22]: 7.5%
cell viability [23]: 106%
cell viability [24]: 122%
cell viability [25]: 116%
cell viability [26]: 99.5%
cell viability [27]: 122%
cell viability [28]: 110%
cell viability [29]: 84.4%
cell viability [30]: 13%
cell viability [31]: 8.52%
cell viability [32]: 9.32%
cell viability [33]: 7.81%

C[C@]1(c2nc3c(C(N)=O)cccc3[nH]2)CCCN1
cell viability [1]: 70.8%
cell viability [2]: 69.6%
cell viability [3]: 84%
cell viability [4]: 82.2%
cell viability [5]: 80.8%
cell viability [6]: 88.9%
cell viability [7]: 84.2%
cell viability [8]: 74.6%
cell viability [9]: 67.1%
cell viability [10]: 93%
cell viability [11]: 31.4%
cell viability [12]: 65.2%
cell viability [13]: 80.4%
cell viability [14]: 72.5%
cell viability [15]: 79.5%
cell viability [16]: 76.3%
cell viability [17]: 76.3%
cell viability [18]: 85.6%
cell viability [19]: 72%
cell viability [20]: 68.9%
cell viability [21]: 81.3%
cell viability [22]: 23%
cell viability [23]: 62.8%
cell viability [24]: 77%
cell viability [25]: 76.8%
cell viability [26]: 82.3%
cell viability [27]: 87.5%
cell viability [28]: 93.7%
cell viability [29]: 89.6%
cell viability [30]: 90.6%
cell viability [31]: 73.1%
cell viability [32]: 77.4%
cell viability [33]: 26.1%

COc1ccc(C2CNC(=O)C2)cc1OC1CCCC1 (stereo unspecified)
cell viability [1]: 78.4%
cell viability [2]: 105%
cell viability [3]: 91.4%
cell viability [4]: 97.7%
cell viability [5]: 122%
cell viability [6]: 105%
cell viability [7]: 105%
cell viability [8]: 112%
cell viability [9]: 101%
cell viability [10]: 99.6%
cell viability [11]: 106%
cell viability [12]: 85.8%
cell viability [13]: 92.4%
cell viability [14]: 92%
cell viability [15]: 103%
cell viability [16]: 109%
cell viability [17]: 95.1%
cell viability [18]: 92.5%
cell viability [19]: 100%
cell viability [20]: 92.4%
cell viability [21]: 91.8%
cell viability [22]: 107%
cell viability [23]: 92.1%
cell viability [24]: 94.5%
cell viability [25]: 93.8%
cell viability [26]: 95.2%
cell viability [27]: 102%
cell viability [28]: 96.7%
cell viability [29]: 104%
cell viability [30]: 94.7%
cell viability [31]: 104%
cell viability [32]: 98.7%
cell viability [33]: 94.9%
